Each block holds one compound with its values, some of them ahead of it.
Legend:
[1] = Plasma and tumor concentrations following single 10 μg (R848 equivalents) intratumoral administration to CT26 tumor bearing mice; format: in vivo, Balb/c mice; set-up: unit not given here
Description: (§1) Studies were conducted to evaluate the single dose pharmacokinetics of R848 and Compound 6 in plasma and tumor tissue.
(§2) Plasma and tumor tissues were collected at pre-determined time points for analysis of R848 and Compound 6 using a qualified LC-MS/MS method.

[2] = Plasma and tumor concentrations following single 10 μg (R848 equivalents) intratumoral administration to EMT6 tumor bearing mice; format: in vivo, Balb/c mice; set-up: unit not given here
Description: as §1, §2

[3] = as above; format: in vivo, Balb/c mice; set-up: key: +<10; 10≤++<100; 100≤+++<1,000; 1,000≤++++; BLQ is Below the Limit of Quantitation
Description: as §1, §2

[4] = Plasma and tumor concentrations following single 10 μg (R848 equivalents) intratumoral administration to CT26 tumor bearing mice; format: in vivo, Balb/c mice; set-up: key: +<10; 10≤++<100; 100≤+++<1,000; 1,000≤++++; BLQ is Below the Limit of Quantitation
Description: as §1, §2

CT26 tumor cells = assay: Effect of treatment in vivo on intratumoral immune cell types by flow cytometry, CT26 tumors; set-up: species or system Balb/c mice
Description: The other (contralateral) tumor was not dosed with R848.
Immune cell subtypes were measured by flow cytometry.

[5] = system: proinflammatory cytokines IFNα, IFNγ, TNFα, IL-6 and IL-12; assay: Plasma cytokine induction after Compound 6 or resiquimod with staggered RSLAIL-2 in CT26 model; format: in vivo, Balb/c mice
Description: The concentration of proinflammatory cytokines IFNα, IFNγ, TNFα, IL-6 and IL-12 was determined in plasma by multiplex protein measurement assay at indicated time points post dose.

[6] = system: subcutaneous B16F10 mouse melanoma tumors; assay: Immune cells in tumor microenvironment by flow cytometry, B16F10 melanoma model; format: in vivo, mice; conditions: day 7; single dose of RSLAIL-2 or 5 doses of aldesleukin
STAT5 phosphorylation = STAT5 phosphorylation in lymphocytes by flow cytometry after administration in mice; format: in vivo
Excerpt: Conventional approaches, such as those involving radiolabeling a compound, administering it in vivo, and determining its clearance, can be used to determine whether a compound proposed to be a long-acting IL-2Rβ biased agonist is “long-acting”. For the purposes herein, the long acting nature of an IL-2Rβ biased agonist is typically determined using flow cytometry to measure STAT5 phosphorylation in lymphocytes at various time points after administration of the agonist to be evaluated in mice. As a reference, the signal is lost by around 24 hours with IL-2, but is sustained for a period greater than that for a long-acting IL-2Rβ-biased agonist.

[7] = plasma, 10 μg intra/peritumoral

R848 plasma concentration ([1]; 0.25 hr post-dose): ++ (10≤++<100)
R848 tumor concentration ([1]; 0.25 hr post-dose): ++ (1,000≤++<10,000)
R848 plasma concentration ([1]; 2.00 hr post-dose): + (+<10)
R848 tumor concentration ([1]; 2.00 hr post-dose): + (+<1,000)
R848 plasma concentration ([1]; 6.00 hr post-dose): + (+<10)
R848 tumor concentration ([1]; 6.00 hr post-dose): + (+<1,000)
R848 plasma concentration ([1]; 24.00 hr post-dose): + (+<10)
R848 tumor concentration ([1]; 24.00 hr post-dose): + (+<1,000)
R848 tumor concentration ([1]; 72.00 hr post-dose): + (+<1,000)
R848 tumor concentration ([1]; 96.00 hr post-dose): + (+<1,000)
R848 tumor concentration ([1]; 120.00 hr post-dose): + (+<1,000)
R848 tumor concentration ([1]; 144.00 hr post-dose): + (+<1,000)
R848 plasma concentration ([2]; 0.25 hr post-dose): +++ (100≤+++<1,000)
R848 tumor concentration ([2]; 0.25 hr post-dose): ++ (1,000≤++<10,000)
R848 plasma concentration ([2]; 2.00 hr post-dose): + (+<10)
R848 tumor concentration ([2]; 2.00 hr post-dose): + (+<1,000)
R848 plasma concentration ([2]; 6.00 hr post-dose): + (+<10)
R848 tumor concentration ([2]; 6.00 hr post-dose): + (+<1,000)
R848 tumor concentration ([2]; 24.00 hr post-dose): + (+<1,000)
R848 tumor concentration ([2]; 72.00 hr post-dose): + (+<1,000)
R848 tumor concentration ([2]; 96.00 hr post-dose): + (+<1,000)
R848 tumor concentration ([2]; 120.00 hr post-dose): + (+<1,000)
R848 tumor concentration ([2]; 144.00 hr post-dose): + (+<1,000)
R848 plasma concentration ([3]; 24.00 hr post-dose): BLQ
R848 plasma concentration ([3]; 72.00 hr post-dose): BLQ
R848 plasma concentration ([3]; 96.00 hr post-dose): BLQ
R848 plasma concentration ([3]; 120.00 hr post-dose): BLQ
R848 plasma concentration ([3]; 144.00 hr post-dose): BLQ
R848 plasma concentration ([4]; 72.00 hr post-dose): BLQ
R848 plasma concentration ([4]; 96.00 hr post-dose): BLQ
R848 plasma concentration ([4]; 120.00 hr post-dose): BLQ
R848 plasma concentration ([4]; 144.00 hr post-dose): BLQ
Compound: CCOCc1nc2c(N)nc3ccccc3c2n1CC(C)(C)O [Compound R848, 1-(4-Amino-2-(ethoxymethyl)-1H-imidazo[4,5-c]quinolin-1-yl)-2-methylpropan-2-ol]
CD8 T Cells (Percent of Vehicle) (CT26 tumor cells): 95%
CD11c+ CD8+ Dendritic Cells (Percent of Vehicle) (CT26 tumor cells): 135%
Macrophages (Percent of Vehicle) (CT26 tumor cells): 80%
Monocytes (Percent of Vehicle) (CT26 tumor cells): 160%
Neutrophils (Percent of Vehicle) (CT26 tumor cells): 500%
T Regulatory Cells (Percent of Vehicle) (CT26 tumor cells): 20%
pro-inflammatory cytokine induction in blood, in words ([5]; 10 μg single intra/peritumoral dose): robust pro-inflammatory cytokine induction in blood
time of peak level of IFN-γ [5, 7]: 6 h
time of peak levels of IFNα, TNFα, IL-6 and IL-12 [5, 7]: 2 h

Compound: aldesleukin: clinically available IL-2; recombinant IL-2 referred to as aldesleukin
ratio of CD8/Treg in the tumor [6]: 18
time by which STAT5 phosphorylation signal is lost (STAT5 phosphorylation): around 24 hours
